Data: PubChem BioAssay AID1963825 (Molecular Pharmacology Branch, DTP, NCI, 2024)
pIC50: −log10 of the molar value.

Assay: Anticancer human tumor 997537-175-T-J1-PDC patient-derived colon adenocarcinoma cell line growth inhibition [POLQ]
Details: 997537-175-T-J1-PDC complex spheroid viability, combination with POLQ inhibitors; for pIC50: curve of first compound; for viability, T/C: stronger effect = lower value
Summary of the method: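 Patient-derived tumour cells were co-cultured with HUVEC and mesenchymal stem cells as multicellular spheroids at 37 °C. They were treated with POLQ inhibitors (novobiocin, ART-558, RP6685) alone or combined with other agents. Top concentrations were at or near clinical Cmax (otherwise 10 microM; SN-38 at 1 microM), decreasing in half-log steps.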

[1] = second compound 0.0316 µM, first compound 0.0316 µM
[2] = second compound 0.0316 µM, first compound 0.1 µM
[3] = second compound 0.0316 µM, first compound 0.316 µM
[4] = second compound 0.0316 µM, first compound 1 µM
[5] = second compound 0.1 µM, first compound 0.0316 µM
[6] = second compound 0.1 µM, first compound 0.1 µM
[7] = second compound 0.1 µM, first compound 0.316 µM
[8] = second compound 0.1 µM, first compound 1 µM
[9] = second compound 0.316 µM, first compound 0.0316 µM
[10] = second compound 0.316 µM, first compound 0.1 µM
[11] = second compound 0.316 µM, first compound 0.316 µM
[12] = second compound 0.316 µM, first compound 1 µM
[13] = second compound 1 µM, first compound 0.0316 µM
[14] = second compound 1 µM, first compound 0.1 µM
[15] = second compound 1 µM, first compound 0.316 µM
[16] = second compound 1 µM, first compound 1 µM
[17] = second compound 3.16 µM, first compound 0.0316 µM
[18] = second compound 3.16 µM, first compound 0.1 µM
[19] = second compound 3.16 µM, first compound 0.316 µM
[20] = second compound 3.16 µM, first compound 1 µM
[21] = second compound 10 µM, first compound 0.0316 µM
[22] = second compound 10 µM, first compound 0.1 µM
[23] = second compound 10 µM, first compound 0.316 µM
[24] = second compound 10 µM, first compound 1 µM
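Also: luminescence signal used as a surrogate for viable cells; spheroids exposed to drugs for seven days before readout.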

Question: With `CCc1c2c(nc3ccc(O)cc13)-c1cc3c(c(=O)n1C2)COC(=O)[C@]3(O)CC` + Nc1ccc(C#CCN(C(=O)Cc2ncc(C(F)(F)F)cc2C(F)(F)F)c2ccc(F)cc2)nn1 as the compound, how does the pIC50 (second compound 0.0316 µM) read?
Answer: Its pIC50 is 7.60.

Question: And the pIC50 (second compound 0.1 µM)?
Answer: The pIC50 was 7.81.

Question: And the pIC50 (second compound 0.316 µM)?
Answer: Its pIC50 is 7.53.

Question: What about the pIC50 (second compound 1 µM) of the same compound?
Answer: The pIC50 was 7.70.

Question: And the pIC50 (second compound 3.16 µM)?
Answer: The pIC50 was 7.66.

Question: What about the pIC50 (second compound 10 µM) of the same compound?
Answer: The pIC50 was 7.79.

Question: And the viability, T/C (second compound 0.0316 µM, first compound 0.00316 µM)?
Answer: Its viability, T/C is 89.5%.

Question: And the viability, T/C (second compound 0.0316 µM, first compound 0.01 µM)?
Answer: The viability, T/C was 91.4%.

Question: What about the viability, T/C [1] of the same compound?
Answer: The viability, T/C was 39.2%.

Question: And the viability, T/C [2]?
Answer: Its viability, T/C is 19%.

Question: What about the viability, T/C [3] of the same compound?
Answer: Its viability, T/C is 6.65%.

Question: And the viability, T/C [4]?
Answer: The viability, T/C was 10.3%.

Question: What about the viability, T/C (second compound 0.1 µM, first compound 0.00316 µM) of the same compound?
Answer: The viability, T/C was 89.9%.

Question: What about the viability, T/C (second compound 0.1 µM, first compound 0.01 µM) of the same compound?
Answer: The viability, T/C was 60.1%.

Question: What about the viability, T/C [5] of the same compound?
Answer: The viability, T/C was 32.7%.

Question: What about the viability, T/C [6] of the same compound?
Answer: The viability, T/C was 20.1%.

Question: What about the viability, T/C [7] of the same compound?
Answer: Its viability, T/C is 6.93%.

Question: And the viability, T/C [8]?
Answer: The viability, T/C was 6.26%.

Question: And the viability, T/C (second compound 0.316 µM, first compound 0.00316 µM)?
Answer: Its viability, T/C is 79.8%.

Question: What about the viability, T/C (second compound 0.316 µM, first compound 0.01 µM) of the same compound?
Answer: The viability, T/C was 65.1%.

Question: And the viability, T/C [9]?
Answer: Its viability, T/C is 51.6%.

Question: And the viability, T/C [10]?
Answer: Its viability, T/C is 19.6%.

Question: What about the viability, T/C [11] of the same compound?
Answer: Its viability, T/C is 6.57%.

Question: What about the viability, T/C [12] of the same compound?
Answer: Its viability, T/C is 10.8%.

Question: And the viability, T/C (second compound 1 µM, first compound 0.00316 µM)?
Answer: Its viability, T/C is 83.5%.

Question: And the viability, T/C (second compound 1 µM, first compound 0.01 µM)?
Answer: The viability, T/C was 70.4%.

Question: And the viability, T/C [13]?
Answer: The viability, T/C was 33.9%.

Question: What about the viability, T/C [14] of the same compound?
Answer: Its viability, T/C is 22.8%.

Question: What about the viability, T/C [15] of the same compound?
Answer: The viability, T/C was 5.79%.

Question: What about the viability, T/C [16] of the same compound?
Answer: The viability, T/C was 5.67%.

Question: What about the viability, T/C (second compound 3.16 µM, first compound 0.00316 µM) of the same compound?
Answer: Its viability, T/C is 74.1%.

Question: And the viability, T/C (second compound 3.16 µM, first compound 0.01 µM)?
Answer: The viability, T/C was 66.7%.

Question: What about the viability, T/C [17] of the same compound?
Answer: The viability, T/C was 42%.

Question: And the viability, T/C [18]?
Answer: Its viability, T/C is 16.7%.

Question: What about the viability, T/C [19] of the same compound?
Answer: Its viability, T/C is 7.19%.

Question: And the viability, T/C [20]?
Answer: Its viability, T/C is 6.33%.

Question: And the viability, T/C (second compound 10 µM, first compound 0.00316 µM)?
Answer: Its viability, T/C is 76.5%.

Question: What about the viability, T/C (second compound 10 µM, first compound 0.01 µM) of the same compound?
Answer: The viability, T/C was 65.5%.

Question: What about the viability, T/C [21] of the same compound?
Answer: The viability, T/C was 29%.

Question: What about the viability, T/C [22] of the same compound?
Answer: Its viability, T/C is 17.8%.

Question: What about the viability, T/C [23] of the same compound?
Answer: Its viability, T/C is 9.23%.

Question: What about the viability, T/C [24] of the same compound?
Answer: The viability, T/C was 3.78%.

Question: With `CC1COCCN1c1cc(-c2ccnn2C)c2ccnc(-c3ccn[nH]3)c2n1` (centres undefined) + COC1C(OC(N)=O)C(O)C(Oc2ccc3c(O)c(NC(=O)c4ccc(O)c(CC=C(C)C)c4)c(=O)oc3c2C)OC1(C)C as the compound, how does the pIC50 (second compound 0.0316 µM) read?
Answer: Its pIC50 is 6.66.

Question: What about the pIC50 (second compound 0.1 µM) of the same compound?
Answer: The pIC50 was 6.19.

Question: What about the pIC50 (second compound 0.316 µM) of the same compound?
Answer: Its pIC50 is 6.50.

Question: And the pIC50 (second compound 1 µM)?
Answer: The pIC50 was 6.39.

Question: What about the pIC50 (second compound 3.16 µM) of the same compound?
Answer: Its pIC50 is 6.18.

Question: What about the pIC50 (second compound 10 µM) of the same compound?
Answer: The pIC50 was under 5.00.

Question: What about the viability, T/C [1] of the same compound?
Answer: The viability, T/C was 77.2%.

Question: And the viability, T/C [2]?
Answer: Its viability, T/C is 70.2%.

Question: What about the viability, T/C [3] of the same compound?
Answer: Its viability, T/C is 40.4%.

Question: And the viability, T/C [4]?
Answer: The viability, T/C was 47%.

Question: And the viability, T/C (second compound 0.0316 µM, first compound 3.16 µM)?
Answer: The viability, T/C was 24.8%.

Question: And the viability, T/C (second compound 0.0316 µM, first compound 10 µM)?
Answer: Its viability, T/C is 51.3%.

Question: And the viability, T/C [5]?
Answer: Its viability, T/C is 83.3%.

Question: What about the viability, T/C [6] of the same compound?
Answer: The viability, T/C was 81.5%.

Question: And the viability, T/C [7]?
Answer: Its viability, T/C is 64.1%.

Question: And the viability, T/C [8]?
Answer: Its viability, T/C is 42.5%.

Question: What about the viability, T/C (second compound 0.1 µM, first compound 3.16 µM) of the same compound?
Answer: The viability, T/C was 24.7%.

Question: And the viability, T/C (second compound 0.1 µM, first compound 10 µM)?
Answer: Its viability, T/C is 52.9%.

Question: What about the viability, T/C [9] of the same compound?
Answer: The viability, T/C was 88.1%.

Question: What about the viability, T/C [10] of the same compound?
Answer: Its viability, T/C is 88.1%.

Question: What about the viability, T/C [11] of the same compound?
Answer: The viability, T/C was 49.7%.

Question: What about the viability, T/C [12] of the same compound?
Answer: The viability, T/C was 46.3%.

Question: What about the viability, T/C (second compound 0.316 µM, first compound 3.16 µM) of the same compound?
Answer: The viability, T/C was 33%.

Question: And the viability, T/C (second compound 0.316 µM, first compound 10 µM)?
Answer: Its viability, T/C is 66.8%.

Question: And the viability, T/C [13]?
Answer: The viability, T/C was 96.5%.

Question: What about the viability, T/C [14] of the same compound?
Answer: The viability, T/C was 75%.

Question: And the viability, T/C [15]?
Answer: Its viability, T/C is 54.3%.

Question: And the viability, T/C [16]?
Answer: Its viability, T/C is 39%.

Question: And the viability, T/C (second compound 1 µM, first compound 3.16 µM)?
Answer: Its viability, T/C is 33.1%.

Question: What about the viability, T/C (second compound 1 µM, first compound 10 µM) of the same compound?
Answer: The viability, T/C was 56.1%.

Question: And the viability, T/C [17]?
Answer: The viability, T/C was 99.5%.

Question: What about the viability, T/C [18] of the same compound?
Answer: The viability, T/C was 88.9%.

Question: And the viability, T/C [19]?
Answer: Its viability, T/C is 66.1%.

Question: What about the viability, T/C [20] of the same compound?
Answer: The viability, T/C was 31.5%.

Question: And the viability, T/C (second compound 3.16 µM, first compound 3.16 µM)?
Answer: The viability, T/C was 27.4%.

Question: What about the viability, T/C (second compound 3.16 µM, first compound 10 µM) of the same compound?
Answer: The viability, T/C was 64.9%.

Question: What about the viability, T/C [21] of the same compound?
Answer: The viability, T/C was 87%.

Question: What about the viability, T/C [22] of the same compound?
Answer: Its viability, T/C is 64.7%.

Question: And the viability, T/C [23]?
Answer: The viability, T/C was 44%.

Question: What about the viability, T/C [24] of the same compound?
Answer: The viability, T/C was 54%.

Question: And the viability, T/C (second compound 10 µM, first compound 3.16 µM)?
Answer: The viability, T/C was 32.2%.

Question: And the viability, T/C (second compound 10 µM, first compound 10 µM)?
Answer: Its viability, T/C is 70.3%.
